In patent publication US4619932A, “Novel carbostyril derivatives, process for producing thereof and pharmaceutical composition containing the same” (Otsuka Pharmaceutical Co., Ltd., priority 1980, dated 1986):
Where a name gives a salt, the structure may show the parent alone. Read-outs that look alike come from different tables or passages of the source.

Assays:
epinephrine = assay: Activity for antagonizing epinephrine in mouse; format: in vivo, mouse (male, ddy strain); conditions: read-out: ED50 value, dose allowing half the animals to survive
Protocol: (C) Activity for antagonizing epinephrine in mouse
Individual male mice of ddy strain having 17 to 20 g of body weight were used. The mice were abstained from eating for 24 hours. One test group consist of 10 mice. A compound to be tested was administered orally. One hour after the administration, 40 mg/kg of epinephrine was intraperitonerally administered. […] All of 10 mice administered physiological saline solution as the reference group were dead within a few minutes after the administration of epinephrine. (Cf. Loew, E. R. and Micetich, A., J. Pharmacol. Exp. Ther., 93, 434-443 (1948)).

[1] = system: jumping behavior induced by Methamphetamine and L-DOPA; assay: Activity for inhibiting jumping behavior in mouse induced by Methamphetamine and L-DOPA; format: in vivo, mouse (male, ddy-strain); conditions: read-out: ED50 value, inhibition of jumping behavior
Protocol: (B) Activity for inhibiting jumping behavior in mouse induced by Methamphetamine and L-DOPA
Individual male mice of ddy-strain having a body weight of 17 to 25 g were used. The mice were not fed for 24 hours. One test group consisted of 6 mice. A compound to be tested was administered orally. 40Minutes after the administration 4 mg/kg of Methamphetamine d-N-α-dimethylphenthylamine was intraperitonerally administered, further 15 minutes after the administration of Methamphetamine, 400 mg/kg of L-DOPA was intraperitonerally administered. 60 Minutes after the administration of L-DOPA, (3-(3,4-dihydroxyphenyl)alanine) the mouse was placed in a glass beaker of 2 liters capacity, and the number of jumping of the mouse was recorded. The activity for inhibiting jumping behavior of the test compound was determined as positive in case of number of jumping performed by the administered mouse counted 10 or less. While, the activity for inhibiting jumping behabior of the test compound was determined as negative in case the number of jumping performed by the administered mouse recorded over 10. The effective dosage (ED50 value: mg/kg) of the test compound which gives 3 mice were positive over 6 mice of one test group was calculated. The number of jumping performed by the mouse being administered with physiological saline solution as the reference was 150 to 200 per hour. (Cf. H. Lal, F. C. Colpaert, P. Laduron: European J. Pharmacol., 30, 113-116 (1975)).

male rats = conditions: rat, in vivo, po
Protocol: Each of the following compound of the general formula in the present invention was administered orally to male rats to determine the acute toxicity (LD50 mg/kg).

Halothane anesthesia = Halothane anesthesia increasing activity; format: in vivo, mouse (male, ddy-strain); conditions: 16 mg/kg oral, 1 hour before 4% Halothane for 3 minutes; righting reflex
Protocol: Male mice of ddy-strain a having about 20 g body weight were used. One test group consists of 10 mice. An aqueous Gummi Arabicum suspension of test compound (80 mg of a compound to be tested and 1 g of Gummi Arabicum/100 ml of physiological NaCl solution) was administered orally to each mouse at the dosage of 16 mg of test compound/kg body. One hour after the administration, each mouse was placed in gas respiration chamber (13×13×24 cm) and oxygen gas containing 4% of Halothane (2-brome-2-chloro-1,1,1-trifluoroethane) was flown into the chamber at the velocity of 2/min for 3 minutes. A mouse anaesthetized was taken out from the chamber and the time between the introduction of anesthesia to waking was measured by righting reflex as the index. To mice of control group, 1% Gummi Arabicum aqueous physiological solution was orally administered at the dosage of 0.1 ml/kg body.

palpebral ptosis = assay: Palpebral ptosis test in mouse; format: in vivo, mouse (male, ddy-strain); conditions: 64 mg/kg oral, 1 hour; score 0 (wide open eyes) to 8 (eyes completely closed); mean of 10 mice
Protocol: (D) Activity of palpebral ptosis test in mouse
Individual male mice of ddy-strain having 18 to 20 g of body weight were used. The mice were abstained from eating for 24 hours. One test group consists of 10 mice. […] One hour after the administration, the state of palpebral ptosis of the mouse were observed and evaluated on the basis of the following score system. The mean value was calculated from the scores of 10 mice.
Score Degree of palpebral ptosis
8 Eyes completely closed.

[2] = oral, 1 hour before epinephrine 40 mg/kg i.p., survival at 24 hours
[3] = oral, Methamphetamine 4 mg/kg i.p. and L-DOPA 400 mg/kg i.p., positive = 10 or fewer jumps

| Structure (SMILES) | ED50 (epinephrine; [2]) | Acute toxicity (LD50) (male rats) | ED50 [1, 3] | further results |
| --- | --- | --- | --- | --- |
| CN(C)CCCN1c2ccccc2Sc2ccc(Cl)cc21 [Chlorpromazine, 2-chloro-N,N-dimethyl-10H-phenothiazine-10-propanamine, reference compound] | – | – | – | ED50 (epinephrine; po, 24 h): 10.6 mg/kg; ED50 ([1]; po): 7.6 mg/kg |
| O=C1CCc2cc(C(=O)CCN3CCN(c4ccccc4)CC3)ccc2N1 [Compound 1, 6-[1-Oxo-3-(4-phenyl-1-piperazinyl)propyl]-3,4-dihydrocarbostyril] | 3.03 mg/kg | 500 mg/kg | 1.35 mg/kg | Time (minutes) between introduction of anesthesia to waking (Halothane anesthesia): 13.3 min; Score obtained (Mean value), degree of palpebral ptosis (palpebral ptosis): 1.67 |
| O=C1CCc2cc(C(=O)CCCN3CCN(c4ccccc4)CC3)ccc2N1 [Compound 2, 6-[1-Oxo-4-(4-phenyl-1-piperazinyl)butyl]-3,4-dihydrocarbostyril.monohydrochloride] | 4.02 mg/kg | 500 mg/kg | 1.52 mg/kg | Time (minutes) between introduction of anesthesia to waking (Halothane anesthesia): 11.5 min; Score obtained (Mean value), degree of palpebral ptosis (palpebral ptosis): 4.5 |
| CCC(C(=O)c1ccc2[nH]c(=O)ccc2c1)N1CCN(c2cccc(Cl)c2)CC1 (stereo not shown) [Compound 4, 6-{1-Oxo-2-[4-(3-chlorophenyl)-1-piperazinyl]butyl}-carbostyril] | – | – | – | Time (minutes) between introduction of anesthesia to waking (Halothane anesthesia): 9.7 min; ED50 ([1]; po): 4.05 mg/kg; Score obtained (Mean value), degree of palpebral ptosis (palpebral ptosis): 2.33 |
| O=C1CCc2cc(C(O)CCCN3CCN(c4cccc(Cl)c4)CC3)ccc2N1 (stereo not shown) [Compound 5, 6-{1-Hydroxy-4-[4-(3-chlorophenyl)-1-piperazinyl]butyl}-3,4-dihydrocarbostyril] | – | 500 mg/kg | 1.95 mg/kg | Time (minutes) between introduction of anesthesia to waking (Halothane anesthesia): 13.0 min |
| Cc1cccc(N2CCN(CCC(O)c3ccc4c(c3)CCC(=O)N4)CC2)c1C (stereo not shown) [Compound 6, 6-{1-Hydroxy-3-[4-(2,3-dimethylphenyl)-1-piperazinyl]-propyl}-3,4-dihydrocarbostryril] | – | 500 mg/kg | – | Time (minutes) between introduction of anesthesia to waking (Halothane anesthesia): 8.2 min |
| O=C1CCc2cc(C(=O)CCN3CCN(c4cccc(Cl)c4)CC3)ccc2N1 [Compound 7, 6-{1-Oxo-3-[4-(3-chlorophenyl)-1-piperazinyl]-propyl}-3,4-dihydrocarbostyril.monohydrochloride] | – | 500 mg/kg | 1.34 mg/kg | Score obtained (Mean value), degree of palpebral ptosis (palpebral ptosis): 1.33 |
| O=C1CCc2cc(C=CCN3CCN(c4cccc(Cl)c4)CC3)ccc2N1 [Compound 8, 6-{3-[4-(3-Chlorophenyl)-1-piperazinyl]-1-propenyl}-3,4-dihydrocarbostyril] | – | 500 mg/kg | 1.02 mg/kg | – |
| CCOc1ccccc1N1CCN(CC=Cc2ccc3c(c2)CCC(=O)N3)CC1 [Compound 9, 6-{3-[4-(2-Ethoxyphenyl)-1-piperazinyl]-1-propenyl}-3,4-dihydrocarbostyril] | 0.005 mg/kg | 500 mg/kg | 0.12 mg/kg | – |
| Cc1cccc(N2CCN(CC=Cc3ccc4c(c3)CCC(=O)N4)CC2)c1 [Compound 10, 6-{3-[4-(3-Methylphenyl)-1-piperazinyl]-1-propenyl}-3,4-dihydrocarbostyril] | – | 500 mg/kg | 6.02 mg/kg | – |
| O=C1CCc2cc(C=CCCN3CCN(c4ccccc4)CC3)ccc2N1 [Compound 11, 6-[4-(4-Phenyl-1-piperazinyl)-1-butenyl]-3,4-dihydrocarbostyril] | 4 to 8 mg/kg | 500 mg/kg | 1.6 mg/kg | – |
| CCOc1ccccc1N1CCN(CCC=Cc2ccc3c(c2)CCC(=O)N3)CC1 [Compound 12, 6-{4-[4-(2-Ethoxyphenyl)-1-piperazinyl]-1-butenyl}-3,4-dihydrocarbostyril] | 0.005 mg/kg | – | 0.056 mg/kg | – |
| O=C1CCc2cc(C=CCN3CCN(c4ccc(Cl)cc4)CC3)ccc2N1 [Compound 13, 6-{3-[4-(4-chlorophenyl)-1-piperazinyl]-1-propenyl}-3,4-dihydrocarbostyril] | – | 500 mg/kg | 4.16 mg/kg | – |
| O=C1CCc2cc(CCCCN3CCN(c4ccccc4Cl)CC3)ccc2N1 [Compound 14, 6-{4-[4-(2-Chlorophenyl)-1-piperazinyl]-butyl}-3,4-dihydrocarbostyril] | – | – | 3.23 mg/kg | – |
| CCOc1ccccc1N1CCN(CCCCc2ccc3c(c2)CCC(=O)N3)CC1 [Compound 15, 6-{4-[4-(2-Ethoxyphenyl)-1-piperazinyl]-butyl}-3,4-dihydrocarbostyril] | 0.71 mg/kg | 500 mg/kg | 0.39 mg/kg | – |
| CCOc1ccccc1N1CCN(CCCc2ccc3c(c2)CCC(=O)N3)CC1 [Compound 16, 6-{3-[4-(2-Ethoxyphenyl)-1-piperazinyl]-propyl}-3,4-dihydrocarbostyril] | 0.02 mg/kg | 500 mg/kg | 0.24 mg/kg | – |
| COc1ccccc1N1CCN(CCCc2ccc3c(c2)CCC(=O)N3)CC1 [Compound 17, 6-{3-[4-(2-Methoxyphenyl)-1-piperazinyl] -propyl}-3,4-dihydrocarbostyril] | 0.29 mg/kg | 500 mg/kg | – | – |
| O=C1CCc2cc(CCCN3CCN(c4ccccc4)CC3)ccc2N1 [Compound 18, 6-[3-(4-Phenyl-1-piperazinyl)propyl]-3,4-dihydrocarbostyril] | 0.21 mg/kg | 500 mg/kg | 0.34 mg/kg | – |
| COc1ccccc1N1CCN(CC=Cc2ccc3c(c2)CCC(=O)N3)CC1 [Compound 19] | 0.1 mg/kg | 500 mg/kg | 0.79 mg/kg | – |
| O=C1CCc2cc(C(=O)CCCN3CC=C(c4ccc(Cl)cc4)CC3)ccc2N1 [Compound 25, 6-{1-Oxo-4-[4-(4-chlorophenyl)-1,2,5,6-tetrahydropyridyl]butyl}-3,4-dihydrocarbostiryl] | – | – | – | ED50 ([1]; po): 9.56 mg/kg |
| Cc1ccc(C2=CCN(CCC(=O)c3ccc4c(c3)CCC(=O)N4)CC2)cc1 [Compound 26, 6-{1-Oxo-3-[4-(4-methylphenyl)-1,2,5,6-tetrahydropyridyl]propyl}-3,4-dihydrocarbostiryl] | – | – | – | ED50 ([1]; po): 10.3 mg/kg |
| COc1ccccc1C1=CCN(CC=Cc2ccc3c(c2)CCC(=O)N3)CC1 [Compound 27, 6-{3-[4-(2-Methoxyphenyl)-1,2,5,6-tetrahydropyridyl]-1-propenyl}-3,4-dihydrocarbostyril monooxalate] | – | – | – | ED50 ([1]; po): 1.25 mg/kg |
| O=C1CCc2cc(C(=O)CCCN3CC=C(c4ccccc4)CC3)ccc2N1 [Compound 28, 6-[1-Oxo-4-(4-phenyl-1,2,5,6-tetrahydropyridyl)butyl]-3,4-dihydrocarbostyril] | – | – | – | ED50 ([1]; po): 8.89 mg/kg |
| COc1ccccc1C1CCN(CCCc2ccc3c(c2)CCC(=O)N3)CC1.O=C(O)C(=O)O [Compound 29, 6-{3-[4-(2-Methoxyphenyl)-1-piperidyl]-propyl}-3,4-dihydrocarbostyril monooxalate] | – | – | 2.01 mg/kg | – |
| O=c1ccc2cc(CCCCN3CCN(c4ccccc4)CC3)ccc2[nH]1 [Compound 30, 6-[4-(4-Phenyl-1-piperazinyl)butyl]-carbostyril] | – | 500 mg/kg | 0.56 mg/kg | – |
| CCOc1ccccc1N1CCN(CCC=Cc2ccc3[nH]c(=O)ccc3c2)CC1 [Compound 31, 6-{4-[4-(2-Ethoxyphenyl)-1-piperazinyl]-1-butenyl}carbostyril] | – | – | 0.14 mg/kg | – |
| CCC(C(O)c1ccc2[nH]c(=O)ccc2c1)N1CCN(c2cccc(Cl)c2)CC1 (stereo not shown) [Compound 32, 6-{1-Hydroxy-2-[4-(3-chlorophenyl)-1-piperazinyl]butyl}carbostyril] | – | – | 4.86 mg/kg | – |
